Data: patent US5880130A, “4,6-dianilino-pyrimidine derivatives, their preparation and their use as tyrosine kinase inhibitors” (Zeneca Limited, priority 1993, dated 1999)

Key:
liver hepatocyte growth = assay: Test (c): inhibition of TGFα-stimulated liver hepatocyte growth in rats; type: in vivo; conditions: Rattus norvegicus, male rats, usually oral, TGFα 400 μg/kg subcutaneously, BrdU uptake, approximate ED50
Procedure: (c) An in vivo assay in a group of male rats which determines the ability of a test compound (usually administered orally as a ball-milled suspension in 0.5% polysorbate) to inhibit the stimulation of liver hepatocyte growth caused by the administration of the growth factor TGFα (400 μg/kg subcutaneously, usually dosed twice, 3 and 7 hours respectively after the administration of the test compound).
In a control group of rats, the administration of TGFα causes on average a 5-fold stimulation of liver hepatocyte growth.
Cell-growth in the control and test animals is determined as follows:
On the morning of the day after the dosing of the test compound (or 0.5% polysorbate in the control group), the animals are dosed with bromodeoxyuridine (BrdU; 100 mg/kg intraperitoneally). The animals are killed four hours later and the livers are excised. […] Further tests were carried out using a range of doses of the test compounds to allow the calculation of an approximate ED50 value for the inhibition of liver hepatocyte proliferation as determined by inhibition of the uptake of BrdU.

[1] = system: human naso-pharyngeal cancer cell line KB; assay: Test (b): inhibition of EGF-stimulated growth of the cancer cell line KB; type: cell-based; conditions: 72 h, KB cell growth with EGF (10 ng/ml), 3 days, MTT
Procedure: (b) An in vitro assay which determines the ability of a test compound to inhibit the EGF-stimulated growth of the human naso-pharyngeal cancer cell line KB.
KB cells were seeded into wells at a density of 1×10^4 -1.5×10^4 cells per well and grown for 24 hours in DMEH supplemented with 5% FCS (charcoal-stripped). Cell growth was determined after incubation for 3 days by the extent of metabolism of MTT tetrazolium dye to furnish a bluish colour. Cell growth was then determined in the presence of EGF (10 ng/ml) or in the presence of EGF (10 ng/ml) and a test compound at a range of concentrations. An IC50 value could then be calculated.

[2] = target: T1, EGF receptor tyrosine kinase (Homo sapiens, UniProt P00533); assay: Test (a): in vitro inhibition of EGF receptor tyrosine kinase; type: biochemical, human (A-431 cells, derived from human vulval carcinoma); conditions: A-431 cell enzyme, [γ-32P]ATP/peptide phosphorylation, 25° C. 10 minutes
T1 construct: Receptor tyrosine kinase was obtained in partially purified form from A-431 cells; endogenous in cells; host or cells: A-431 cells (human vulval carcinoma); Triton X-100 solubilised membrane fraction
T1 sequence (P00533 25-1210): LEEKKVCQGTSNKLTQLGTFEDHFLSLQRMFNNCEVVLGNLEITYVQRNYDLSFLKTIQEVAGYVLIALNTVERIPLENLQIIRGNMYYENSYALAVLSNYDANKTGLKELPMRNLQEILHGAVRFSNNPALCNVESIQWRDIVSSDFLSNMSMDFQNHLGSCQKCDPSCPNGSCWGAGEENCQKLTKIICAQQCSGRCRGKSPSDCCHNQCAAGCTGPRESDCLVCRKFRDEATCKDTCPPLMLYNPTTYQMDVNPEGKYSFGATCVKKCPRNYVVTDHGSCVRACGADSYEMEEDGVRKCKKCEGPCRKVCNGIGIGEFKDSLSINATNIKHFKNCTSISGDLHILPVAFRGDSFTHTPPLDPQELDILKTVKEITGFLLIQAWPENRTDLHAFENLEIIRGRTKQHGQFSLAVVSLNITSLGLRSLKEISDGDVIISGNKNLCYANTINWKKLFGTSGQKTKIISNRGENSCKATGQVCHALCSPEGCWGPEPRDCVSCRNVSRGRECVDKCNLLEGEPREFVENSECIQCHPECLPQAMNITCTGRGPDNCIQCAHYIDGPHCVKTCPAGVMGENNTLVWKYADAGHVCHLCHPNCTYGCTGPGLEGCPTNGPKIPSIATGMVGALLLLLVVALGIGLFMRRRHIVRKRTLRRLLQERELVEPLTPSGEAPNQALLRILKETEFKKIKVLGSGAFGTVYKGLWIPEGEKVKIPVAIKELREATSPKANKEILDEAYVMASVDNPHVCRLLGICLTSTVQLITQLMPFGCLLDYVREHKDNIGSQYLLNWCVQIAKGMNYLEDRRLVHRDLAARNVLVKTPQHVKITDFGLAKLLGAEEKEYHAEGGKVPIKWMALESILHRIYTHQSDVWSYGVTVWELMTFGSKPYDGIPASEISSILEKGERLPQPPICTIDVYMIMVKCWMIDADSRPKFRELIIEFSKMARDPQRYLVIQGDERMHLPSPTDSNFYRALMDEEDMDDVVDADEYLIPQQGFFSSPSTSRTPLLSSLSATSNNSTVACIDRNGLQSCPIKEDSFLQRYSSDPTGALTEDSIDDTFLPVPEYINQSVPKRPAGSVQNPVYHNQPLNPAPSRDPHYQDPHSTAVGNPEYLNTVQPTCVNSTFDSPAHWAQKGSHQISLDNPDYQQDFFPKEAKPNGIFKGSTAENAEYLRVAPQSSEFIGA
Procedure: (a) An in vitro assay which determines the ability of a test compound to inhibit the enzyme EGF receptor tyrosine kinase. Receptor tyrosine kinase was obtained in partially purified form from A-431 cells (derived from human vulval carcinoma) by procedures related to those described by Carpenter et al., J. Biol. Chem., 1979, 254, 4884, Cohen et al., J. Biol. Chem., 1982, 257, 1523 and by Braun et al., J. Biol. Chem., 1984, 259, 2051.
A-431 cells were grown to confluence using Dulbecco's modified Eagle's medium (DMEM) containing 5% fetal calf serum (FCS). The obtained cells were homogenised in a hypotonic borate/EDTA buffer at pH 10.1. The homogenate was centrifuged at 400 g for 10 minutes at 0°-4° C. The supernatant was centrifuged at 25,000 g for 30 minutes at 0°-4° C. […]
The test compound/EGF mixture solution (5 μl) was added to the test enzyme solution (10 μl) and the mixture was incubated at 0-4° C. for 30 minutes. […] Radioactivity present in the filter paper was measured using a liquid scintillation counter (Sequence A). […]
Receptor tyrosine kinase inhibition was calculated as follows: [formula]
The extent of inhibition was then determined at a range of concentrations of test compound to give an IC50 value.

[3] = system: transplanted human mammary carcinoma which expresses EGF receptor tyrosine kinase; conditions: athymic nude mice; Toi et al. 1990; cited from earlier work
[4] = system: another carcinoma which does not express EGF receptor tyrosine kinase; conditions: Toi et al. 1990; cited from earlier work

| Structure (SMILES) | ED50 (liver hepatocyte growth) [mg/kg] | IC50 [1] [nM] | IC50 [2] [nM] | effect on growth of transplanted human mammary carcinoma expressing EGF receptor tyrosine kinase [3] | effect on growth of another carcinoma which does not express EGF receptor tyrosine kinase [4] |
| --- | --- | --- | --- | --- | --- |
| Cc1cccc(Nc2cc(Nc3cccc(C)c3)ncn2)c1 [4,6-di-(3'-methylanilino)pyrimidine] | < 12.5 | 1100 | 240 | – | – |
| Cc1cccc(Nc2cc(Nc3ccc(OCC(O)CN(C)C)cc3)ncn2)c1 (stereo not drawn) [4-[4'-(3-dimethylamino-2-hydroxypropoxy)anilino]6-(3'-methylanilino)pyrimidine] | – | 310 | 10 | – | – |
| Cc1cccc(Nc2cc(Nc3ccc(OCCO)cc3)ncn2)c1 [4-[4'-(2-hydroxyethoxy)anilino]6-(3'-methylanilino)pyrimidine] | < 12.5 | 1070 | – | – | – |
| O=CN/C=C/c1cc(O)ccc1O [erbstatin] | – | – | – | specifically attenuates the growth | without effect on the growth |
